System: Metabolic Syndrome cases
Experiment: Clinical study in Metabolic Syndrome cases
Format: in vivo, human
Method: The study population consisted of 128 diagnosed Metabolic Syndrome cases (76 Men and 52 Women), aged 52.81±9.68 years at study entry. The cases were diagnosed as per criteria given by WHO for classification and diagnosis of Metabolic Syndrome. After preliminary screening the subjects showing association with 3 or more than 3 above factors were selected. The clinical trial was conducted in three groups— Group-I: 36 cases were treated with Orlistat (120 mg twice a day after each meals). Group-II: 44 cases were treated with Ayurvedic formulation. Group-III: 48 cases were administered Orlistat along with Ayurvedic formulation. […] Lipid profile including triglyceride was estimated by standard laboratory kits. TNF-[…], interleukin-6 was measured by ELISA kit, adiponectin by radioimmunoassay kit. CRP by kit for quantitative nephelometric determination of CRP in human serum or plasma by Turbox/Turbox analyzer and ELISA activity assay kit for Leptin level. Subjects suffering from any other disease known to affect the study parameters were excluded from the series. Upon recruitment all subjects gave informed written consent.

What does the source list for `CCCCCCCCCCC[C@@H](C[C@@H]1OC(=O)[C@H]1CCCCCC)OC(=O)[C@H](CC(C)C)NC=O` [Conventional drug, Orlistat]?
Adiponectin (After 6 months): 10.04 ± 2.84 µg/mL; Apolipo (B) (After 6 months): 156.41 ± 17.11 mg/dL; Diastolic blood pressure (After 6 months): 84.42 ± 1.98 mmHg; Endotheline (After 6 months): 875.42 ± 171.36 pg/mL; Fasting blood glucose (After 6 months): 99.43 ± 4.36 mg/dL; HDL-c (After 6 months): 50.75 ± 3.12 mg/dL; Interleukin-6 (After 6 months): 1.89 ± 0.75 pg/mL; LDL-c (After 6 months): 109.42 ± 8.44 mg/dL; Leptin (After 6 months): 26.44 ± 3.28 µg/L; Postprandial blood glucose (After 6 months): 186.90 ± 17.42 mg/dL; Systolic blood pressure (After 6 months): 126.90 ± 4.06 mmHg; TNF-α (After 6 months): 324.85 ± 57.86 pg/mL; Total cholesterol (After 6 months): 208.91 ± 27.97 mg/dL; Triglycerides (After 6 months): 224.56 ± 37.90 mg/dL; hs CRP (After 6 months): 3.48 ± 0.89 mg/L; Body Mass Index (BMI) (Female, After 3 months): 29.68 ± 2.04; Body Mass Index (BMI) (Female, After 6 months): 28.45 ± 1.68; Body Mass Index (BMI) (Female, Initial): 31.14 ± 1.88; Adiponectin (Initial): 7.82 ± 1.64 µg/mL; Apolipo (B) (Initial): 193.88 ± 31.64 mg/dL; Diastolic blood pressure (Initial): 88.35 ± 2.06 mmHg; Endotheline (Initial): 1139.73 ± 211.54 pg/mL; Fasting blood glucose (Initial): 133.90 ± 8.82 mg/dL; HDL-c (Initial): 43.84 ± 2.42 mg/dL; Interleukin-6 (Initial): 2.35 ± 0.84 pg/mL; LDL-c (Initial): 143.71 ± 9.13 mg/dL; Leptin (Initial): 33.41 ± 4.35 µg/L; Postprandial blood glucose (Initial): 224.81 ± 20.14 mg/dL; Systolic blood pressure (Initial): 137.82 ± 5.15 mmHg; TNF-α (Initial): 579.84 ± 68.36 pg/mL; Total cholesterol (Initial): 243.84 ± 41.52 mg/dL; Triglycerides (Initial): 371.90 ± 43.88 mg/dL; hs CRP (Initial): 5.31 ± 1.04 mg/L; Body Mass Index (BMI) (Male, After 3 months): 28.82 ± 1.90; Body Mass Index (BMI) (Male, After 6 months): 27.16 ± 1.35; Body Mass Index (BMI) (Male, Initial): 30.75 ± 2.17

Reference: US9642886B2, “Plant based formulation for the prevention and management of metabolic syndrome by its adiponectin enhancing property” (SRM UNIVERSITY, priority 2014, dated 2017)
